PubChem BioAssay AID330 (DTP/NCI, 2004)
Several values for one entry are separate records, joined by “and”; a condition that tells them apart may be missing. Identical values can stand only once. Inconclusive results and toxic doses are left out. How the source made its calls: active means survival T/C of 150% or more; inactive means T/C below 125% in these data.

System: P388 leukemia ip, CD2F1 mice, survival T/C
Assay: NCI In Vivo Anticancer Drug Screen. Data for tumor model P388 Leukemia (intraperitoneal) in CD2F1 (CDF1) mice
Conditions: endpoint: median survival time, higher = longer survival
Procedure, shortened: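 Mice carrying the transplanted tumor received test compound or vehicle. Survival was recorded in each group, and the value is the treated-group measurement divided by that of the vehicle-treated control group.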

[1] = dose: 100.0 mg/kg/injection, schedule: Q01DX009 (ip), vehicle: saline with Tween-80
[2] = dose: 100.0 mg/kg/injection, schedule: Q04DX003 (ip), vehicle: saline with Tween-80
[3] = dose: 200.0 mg/kg/injection, schedule: Q01DX009 (ip), vehicle: saline with Tween-80
[4] = dose: 200.0 mg/kg/injection, schedule: Q04DX003 (ip), vehicle: saline with Tween-80
[5] = dose: 400.0 mg/kg/injection, schedule: Q04DX003 (ip), vehicle: saline with Tween-80
[6] = dose: 50.0 mg/kg/injection, schedule: Q01DX009 (ip), vehicle: saline with Tween-80
[7] = dose: 100.0 mg/kg/injection, schedule: Q04DX002 (ip), vehicle: saline with Tween-80
[8] = dose: 200.0 mg/kg/injection, schedule: Q04DX002 (ip), vehicle: saline with Tween-80
[9] = dose: 400.0 mg/kg/injection, schedule: Q04DX002 (ip), vehicle: saline with Tween-80
[10] = dose: 50.0 mg/kg/injection, schedule: Q01DX005 (ip), vehicle: saline with Tween-80
[11] = dose: 100.0 mg/kg/injection, schedule: Q01DX005 (ip), vehicle: saline with Tween-80
[12] = dose: 200.0 mg/kg/injection, schedule: Q01DX005 (ip), vehicle: saline with Tween-80

Measured: T/C

Cc1cn(C2CC(O)C(CO)O2)c(=O)[nH]c1=O (configuration not stated)
inactive: dose: 16.0 mg/kg/injection, schedule: Q01DX009 (ip), vehicle: saline 100 % of control and 105 % of control | dose: 32.0 mg/kg/injection, schedule: Q01DX009 (ip), vehicle: saline with Tween-80 109 % of control | dose: 64.0 mg/kg/injection, schedule: Q01DX009 (ip), vehicle: saline with Tween-80 101 % of control | dose: 128.0 mg/kg/injection, schedule: Q01DX009 (ip), vehicle: saline with Tween-80 101 % of control | dose: 150.0 mg/kg/injection, schedule: Q02HX012 (ip), vehicle: saline 96 % of control | dose: 150.0 mg/kg/injection, schedule: Q04DX012 (ip), vehicle: saline 104 % of control | dose: 200.0 mg/kg/injection, schedule: Q02HX012 (ip), vehicle: saline 98 % of control | dose: 200.0 mg/kg/injection, schedule: Q04DX012 (ip), vehicle: saline 102 % of control | dose: 250.0 mg/kg/injection, schedule: Q01DX001 (ip), vehicle: saline 98 % of control | dose: 250.0 mg/kg/injection, schedule: Q01DX009 (ip), vehicle: saline 100 % of control | dose: 256.0 mg/kg/injection, schedule: Q01DX009 (ip), vehicle: saline with Tween-80 89 % of control | dose: 300.0 mg/kg/injection, schedule: Q02HX012 (ip), vehicle: saline 101 % of control | dose: 300.0 mg/kg/injection, schedule: Q04DX012 (ip), vehicle: saline 100 % of control | dose: 375.0 mg/kg/injection, schedule: Q01DX009 (ip), vehicle: saline 107 % of control and 95 % of control | dose: 400.0 mg/kg/injection, schedule: Q02HX012 (ip), vehicle: saline 109 % of control | dose: 400.0 mg/kg/injection, schedule: Q04DX012 (ip), vehicle: saline 105 % of control | dose: 500.0 mg/kg/injection, schedule: Q01DX001 (ip), vehicle: saline 98 % of control | dose: 512.0 mg/kg/injection, schedule: Q01DX009 (ip), vehicle: saline with Tween-80 108 % of control | dose: 512.0 mg/kg/injection, schedule: Q01DX009 (ip), vehicle: saline 99 % of control and 102 % of control | dose: 600.0 mg/kg/injection, schedule: Q02HX012 (ip), vehicle: saline 108 % of control | dose: 600.0 mg/kg/injection, schedule: Q04DX012 (ip), vehicle: saline 102 % of control | dose: 750.0 mg/kg/injection, schedule: Q01DX009 (ip), vehicle: saline 115 % of control and 97 % of control | dose: 1000.0 mg/kg/injection, schedule: Q01DX009 (ip), vehicle: saline 101 % of control and 103 % of control and 110 % of control | dose: 1500.0 mg/kg/injection, schedule: Q01DX009 (ip), vehicle: saline 108 % of control

S=C(S)n1nc(-c2ccccc2)c(N=Nc2ccc(Br)cc2)c1-c1ccccc1
inactive: dose: 100.0 mg/kg/injection, schedule: Q04DX002 (ip), vehicle: Klucel (hydroxypropylcellulose) (HPC) 107 % of control | dose: 200.0 mg/kg/injection, schedule: Q04DX002 (ip), vehicle: Klucel (hydroxypropylcellulose) (HPC) 110 % of control | dose: 400.0 mg/kg/injection, schedule: Q04DX002 (ip), vehicle: Klucel (hydroxypropylcellulose) (HPC) 113 % of control

Cc1nc2[nH]c(=S)[nH]c(=O)c2nc1C
inactive: [1] 104 % of control | [2] 95 % of control | [3] 100 % of control | [4] 95 % of control | dose: 400.0 mg/kg/injection, schedule: Q01DX009 (ip), vehicle: saline with Tween-80 95 % of control | [5] 95 % of control

O=C(Nc1cccc2ccccc12)OCC1CC1
inactive: dose: 50.0 mg/kg/injection, schedule: Q04DX003 (ip), vehicle: saline with Tween-80 98 % of control | [2] 102 % of control | [4] 100 % of control | [5] 100 % of control

COc1ccc2c(c1)CC(CN1CCC3(CC1)C(=O)NCN3c1ccccc1)O2 (configuration not stated)
inactive: [6] 104 % of control | [1] 101 % of control | [3] 100 % of control

CCOC(=O)c1cc(-c2cc(-c3ccccn3)nnc2-c2ccccn2)c(=O)n(C)c1C
inactive: [7] 102 % of control | [8] 97 % of control | [9] 98 % of control

N#Cc1ccc(N)cc1C#N
inactive: dose: 50.0 mg/kg/injection, schedule: Q01DX009 (ip), vehicle: Klucel (hydroxypropylcellulose) (HPC) 94 % of control | dose: 100.0 mg/kg/injection, schedule: Q01DX009 (ip), vehicle: Klucel (hydroxypropylcellulose) (HPC) 94 % of control | dose: 200.0 mg/kg/injection, schedule: Q01DX009 (ip), vehicle: Klucel (hydroxypropylcellulose) (HPC) 96 % of control

CC(=O)C1=C(O)C2(C)c3c(O)c(C)c(O)c(C(C)=O)c3OC2CC1=O (configuration not stated)
inactive: dose: 6.25 mg/kg/injection, schedule: Q01DX009 (ip), vehicle: gum acacia 100 % of control and 106 % of control | dose: 12.5 mg/kg/injection, schedule: Q01DX009 (ip), vehicle: gum acacia 103 % of control and 108 % of control | dose: 25.0 mg/kg/injection, schedule: Q01DX009 (ip), vehicle: gum acacia 108 % of control and 110 % of control | dose: 50.0 mg/kg/injection, schedule: Q01DX009 (ip), vehicle: gum acacia 108 % of control and 110 % of control

CC(=O)[C-](C)C(C)=O.CC(=O)[C-](C)C(C)=O.CC(=O)[C-](C)C(C)=O.[Ru+3]
inactive: [10] 100 % of control | [11] 113 % of control | [12] 90 % of control

CC(C)(C)CC(C)(C)c1ccc(OCc2cccc(F)c2)cc1
inactive: [6] 97 % of control | [1] 97 % of control | [3] 100 % of control

NC(=O)/C=C/C(=O)NC(=O)Cc1ccccc1
inactive: dose: 1.5 mg/kg/injection, schedule: Q01DX009 (ip), vehicle: saline with Tween-80 109 % of control | dose: 3.0 mg/kg/injection, schedule: Q01DX009 (ip), vehicle: saline with Tween-80 110 % of control and 119 % of control | dose: 6.0 mg/kg/injection, schedule: Q01DX009 (ip), vehicle: saline with Tween-80 109 % of control and 116 % of control

CCCCCOC(=O)C1=CCN2CCCC12C (configuration not stated)
inactive: dose: 25.0 mg/kg/injection, schedule: Q01DX001 (ip), vehicle: saline with Tween-80 97 % of control | dose: 50.0 mg/kg/injection, schedule: Q01DX001 (ip), vehicle: saline with Tween-80 105 % of control | dose: 100.0 mg/kg/injection, schedule: Q01DX001 (ip), vehicle: saline with Tween-80 97 % of control

CC(C)(C)C(=O)Nc1ccc2c(c1)C(=O)c1ccccc1C2=O
inactive: [10] 100 % of control | [11] 87 % of control | [12] 89 % of control

Nc1nc(C2CCCCC2)c(I)c(=O)[nH]1
inactive: dose: 50.0 mg/kg/injection, schedule: Q01DX005 (ip), vehicle: Klucel (hydroxypropylcellulose) (HPC) 101 % of control | dose: 100.0 mg/kg/injection, schedule: Q01DX005 (ip), vehicle: Klucel (hydroxypropylcellulose) (HPC) 103 % of control | dose: 200.0 mg/kg/injection, schedule: Q01DX005 (ip), vehicle: Klucel (hydroxypropylcellulose) (HPC) 97 % of control

CC1=Nc2ccccc2SC2(C1)C(C1COC(C)(C)O1)OC1OC(C)(C)OC12 (configuration not stated)
inactive: [10] 93 % of control | [11] 94 % of control | [12] 92 % of control

CS/C(N)=N/NC(=O)CCC(=O)Nc1cc(Cl)c(Cl)cc1Cl
inactive: [7] 102 % of control | [8] 100 % of control | [9] 96 % of control

CCOc1ccc(N=C2C=C(Nc3ccc(OCC)cc3)C(=Nc3ccc(OCC)cc3)C=C2Nc2ccc(OCC)cc2)cc1
inactive: dose: 60.0 mg/kg/injection, schedule: Q01DX005 (ip), vehicle: saline with Tween-80 96 % of control | dose: 120.0 mg/kg/injection, schedule: Q01DX005 (ip), vehicle: saline with Tween-80 95 % of control | dose: 240.0 mg/kg/injection, schedule: Q01DX005 (ip), vehicle: saline with Tween-80 92 % of control
